Source: patent publication US9708275B2, “Heterocyclic compounds and methods for their use” (Novartis AG, priority 2012, dated 2017)
pIC50: −log10 of the molar value.

molecular target: AT2 receptor (Homo sapiens (Human), UniProt P50052); assay: AT2 receptor binding assay ([125I]-CGP42112A, HEK293/AT2 receptor cell membranes); settings: displacement of [125I]-CGP42112A, RT 1.5 hrs
Experimental: 1. Trypsin-EDTA (for preparation of 100 mL) • Trypsin 0.25 g • 2% EDTA 2 mL • PBS 98 mL • Dissolve trypsin in 2% EDTA and PBS completely; sterilize the solution by passing through a […] membrane filter; store at 4° C.
2. DMEM medium (for preparation of 1 L) • The powder was dissolved into 950 mL of distilled water with gentle stirring until the solution becomes clear. • Add NaHCO3 1.176 g for DMEM medium. • Adjust pH of medium to 0.2-0.3 below final working pH using 1 M NaOH or 1 M HCl. Add slowly with stirring. • Dilute to 1 liter with ddH2O. • Sterilize the medium immediately by filtration. • Store at 4° C.
3. TE buffer • 20 mM Tris-HCl, pH 7.4, • 5 mM EDTA
4. Binding Assay Buffer • 50 mM Hepes, pH 7.4 • 5 mM MgCl2 • 1 mM CaCl2 • 0.2% BSA
5. Wash Buffer • 50 mM Hepes, pH 7.4 Procedures for HEK293/AT2 Receptor Transient Cell Transfection • Cells were plated into 150 mm dish at 50% density for transient transfection. Cells were ready for transfection after overnight incubation (the confluence reaches around 80%). • 75 μL Lipofectamine™2000 diluted in 6.25 mL OptiMEM I Reduced Serum Medium, was mixed gently, and incubated at room temperature for 5 minutes. 50 μg expression plasmid DNA diluted in 6.25 mL OptiMEM I Reduced Serum Medium without serum was mixed gently. • After the 5 minute incubation, the diluted DNA was combined with the diluted Lipofectamine™2000 (total volume is 12.5 mL). The mixture was mixed gently and incubated for 30 minutes at room temperature to allow the DNA-Lipofectamine™2000 complexes to form. • The 12.5 mL DNA-Lipofectamine™2000 complexes were added into the 150 mm dish and mixed gently by rocking the dish back and forth. • The cells were incubated at 37° C. with 5% CO2 for 48 hours. • Cells were collected and stored frozen at −80° C. Procedures for HEK293/AT2 Receptor Cell Membrane Preparation • Frozen HEK293/AT2 receptor (transient transfected) cells were homogenized in ice cold TE buffer for 10 s. • The homogenate was centrifuged at 25,000 g for 30 minutes. • The pellet was resuspended in ice cold tissue buffer. • Protein concentrations were determined using Bradford assay method with BSA as standard. • The membrane protein was frozen under −80° C. Compound Preparation
Solutions of all compounds were prepared by microplate liquid handling equipment such as Janus or Precision 2000. Compounds, dissolved in DMSO were stored in a Freezer. Compounds were prepared from 30 mM in 100% DMSO.
Step 1: Dose plate preparation (96 well plate)
• Add the 3 μL [30 mM] compound stock to column 1 on the plate. • Add 15 μL of 100% DMSO to column 1. • Add 10.81 μL of 100% DMSO to column 2-12. • Transfer 5 μL from column 1 into column 2 (half log dilution). • Transfer 5 μL from column 2 into column 3 (half log dilution). • Transfer 5 μL from column 3 into column 4 (half log dilution). • Transfer 5 μL from column 4 into column 5 (half log dilution). • Transfer 5 μL from column 5 into column 6 (half log dilution). • Transfer 5 μL from column 6 into column 7 (half log dilution). • Transfer 5 μL from column 7 into column 8 (half log dilution). • Transfer 5 μL from column 8 into column 9 (half log dilution). • Transfer 5 μL from column 9 into column 10 (half log dilution) • Transfer 5 μL from column 10 into column 11 (half log dilution) • Transfer 5 μL from column 11 into column 12 (half log dilution).
All the compounds were diluted using Precision 2000 microplate liquid handling equipment. The top concentration of compound was 5 mM with 100% DMSO.
Step 2: Working plate preparation (96 well plate)
• Compounds were diluted 50-fold with buffer. • 49 μL buffer was added to the well of 96 well plate. • 1 μL compound solution from dose plate was transferred to the corresponding well of working plate. • The top concentration of compound was 100 μM with 2% DMSO. Step 3: Assay plate preparation (96 well plate)
15 μL of compound solution was transferred from each well of working plate to the well of assay plate by Janus. […]

AT2 receptor, sequence (P50052 whole entry, species assumed): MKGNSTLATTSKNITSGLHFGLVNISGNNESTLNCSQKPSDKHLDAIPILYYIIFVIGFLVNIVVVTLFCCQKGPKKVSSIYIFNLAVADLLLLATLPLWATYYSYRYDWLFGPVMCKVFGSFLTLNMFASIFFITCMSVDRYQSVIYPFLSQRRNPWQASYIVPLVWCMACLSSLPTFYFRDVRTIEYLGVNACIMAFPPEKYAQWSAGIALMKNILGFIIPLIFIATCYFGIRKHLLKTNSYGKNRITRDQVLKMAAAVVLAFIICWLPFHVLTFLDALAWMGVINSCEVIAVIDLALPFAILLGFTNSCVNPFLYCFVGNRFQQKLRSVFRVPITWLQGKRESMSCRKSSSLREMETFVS

pIC50	Structure (SMILES)
6.39	O=C(O)[C@@H]1CN(c2ccccc2)CCN1C(=O)C(c1ccccc1)c1ccccc1 [Compound 4, (S)-1-(2,2-diphenylacetyl)-4-phenylpiperazine-2-carboxylic acid]
6.42	O=C(O)[C@@H]1CN(Cc2ccccc2)CCN1C(=O)C(c1ccccc1)c1ccccc1 [Compound 5, (S)-4-benzyl-1-(2,2-diphenylacetyl)piperazine-2-carboxylic acid]
5.52	O=C(O)[C@@H]1CN(c2cc(-c3ccccc3)n(-c3ccccc3)n2)CCN1C(=O)C(c1ccccc1)c1ccccc1 [Compound 6, (S)-4-(1,5-diphenyl-1H-pyrazol-3-yl)-1-(2,2-diphenylacetyl)-piperazine-2-carboxylic acid]
6.81	Cc1cc(N2CCN(C(=O)C(c3ccccc3)c3ccccc3)[C@H](C(=O)O)C2)n(-c2ccccc2)n1 [Compound 7, (3)-1-(2,2-diphenylacetyl)-4-(3-methyl-1-phenyl-1H-pyrazol-5-yl)piperazine-2-carboxylic acid]
5.90	O=C(O)[C@@H]1CN(CCc2ccccc2)CCN1C(=O)C(c1ccccc1)c1ccccc1 [Compound 8, (S)-1-(2,2-diphenylacetyl)-4-phenethylpiperazine-2-carboxylic acid]
5.39	O=C(O)[C@@H]1CN(C/C=C/c2ccccc2)CCN1C(=O)C(c1ccccc1)c1ccccc1 [Compound 9, (S)-4-cinnamyl-1-(2,2-diphenylacetyl)piperazine-2-carboxylic acid]
6.29	O=C(O)[C@@H]1CN(CCCc2ccccc2)CCN1C(=O)C(c1ccccc1)c1ccccc1 [Compound 10, (S)-1-(2,2-diphenylacetyl)-4-(3-phenylpropyl)piperazine-2-carboxylic acid]
7.40	Cc1cc(N2CCN(C(=O)C(c3ccccc3)c3ccccc3)[C@H](C(=O)O)C2)n(Cc2ccccc2)n1 [Compound 16, (S)-4-(1-benzyl-3-methyl-1H-pyrazol-5-yl)-1-(2,2-diphenylacetyl)piperazine-2-carboxylic acid]
7.03	O=C(O)[C@@H]1CN(c2cc(C(F)(F)F)nn2Cc2ccccc2)CCN1C(=O)C(c1ccccc1)c1ccccc1 [Compound 23, (S)-4-(1-benzyl-3-(-trifluoromethyl)-1H-pyrazol-5-yl)-1-(2,2-diphenylacetyl)piperazine-2-carboxylic acid]
5.38	O=C(O)[C@@H]1CN(CC#Cc2ccccc2)CCN1C(=O)C(c1ccccc1)c1ccccc1 [Compound 24, (S)-1-(2,2-diphenylacetyl)-4-(3-phenylprop-2-yn-1-yl)piperazine-2-carboxylic acid]
5.88	O=C(O)[C@@H]1CN(CCC#Cc2ccccc2)CCN1C(=O)C(c1ccccc1)c1ccccc1 [Compound 26, (S)-1-(2,2-diphenylacetyl)-4-(4-phenylbut-3-yn-1-yl)piperazine-2-carboxylic acid]
